Measured values as given in PMC7251097, “Aspartate/asparagine-β-hydroxylase: a high-throughput mass spectrometric assay for discovery of small molecule inhibitors” (Scientific Reports, 2020).
Where a name gives a salt, the structure may show the parent alone. Read-outs that look alike come from different tables or passages of the source. Residues, ends and D or L forms follow the SMILES beside them. *: point of attachment. Cbz = O=C(OCc1ccccc1)*

Target: T1, His6-AspH315–758 (human aspartate/asparagine-β-hydroxylase, AspH) (Homo sapiens, UniProt Q12797)
T1 construct: N-Terminally His6-tagged human AspH315–758 (His6-AspH315–758) was produced in E. coli BL21 (DE3) cells; made in house; host or cells: E. coli BL21 (DE3), pET-28a(+) vector
T1 sequence (Q12797 315-758): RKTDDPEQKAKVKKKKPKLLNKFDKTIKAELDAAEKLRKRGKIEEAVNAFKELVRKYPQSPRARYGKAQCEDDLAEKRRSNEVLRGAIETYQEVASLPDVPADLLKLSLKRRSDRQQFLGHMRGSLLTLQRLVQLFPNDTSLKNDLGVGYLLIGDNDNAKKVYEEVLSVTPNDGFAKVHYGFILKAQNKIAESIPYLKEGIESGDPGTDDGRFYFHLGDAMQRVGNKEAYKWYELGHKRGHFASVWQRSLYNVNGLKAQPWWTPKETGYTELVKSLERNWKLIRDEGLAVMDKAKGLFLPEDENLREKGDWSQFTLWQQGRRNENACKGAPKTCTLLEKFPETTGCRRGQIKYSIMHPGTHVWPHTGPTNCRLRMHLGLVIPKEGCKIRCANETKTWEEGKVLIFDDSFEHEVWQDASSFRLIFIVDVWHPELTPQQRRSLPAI
Assay: SPE-MS AspH inhibition assay (LOPAC screen at fixed 20 μM and IC50 dose-response), hydroxylation of cyclic peptide hFX-CP101–119
Type: biochemical
Settings: for IC50: 50 nM His6-AspH315–758, 1.0 μM hFX-CP101–119, 3 μM 2OG, 2 μM Fe(II), 50 mM HEPES pH 7.5, 20 °C, mean ± SD, n = 2 (2,4-PDCA n = 10), read-out: IC50

[1] = LOPAC Plate 4, compound at 20 uM
[2] = LOPAC compound at 20uM, plate 3, conversion of substrate peptide
[3] = LOPAC Plate 4, compound at 20 uM, substrate conversion
[4] = LOPAC compound at fixed 20 uM, plate 1, normalised to DMSO and 2,4-PDCA controls
[5] = LOPAC compound at fixed 20 uM, substrate conversion, plate 1
[6] = LOPAC compound at 20uM, plate 2, conversion of substrate peptide

Q: For `N[C@@H](Cn1ccc(=O)c(O)c1)C(=O)O` [L-Mimosine from Koa hoale seeds], which “% conversion” value is on record?
A: The value was 35.13%.

Q: And the “% inhibition” value [1]?
A: Its value is 3.94%.

Q: For `N[C@@H](Cn1ccc(=O)c(O)c1)C(=O)O` [L-Mimosine, reference compound], which IC50 is on record?
A: The IC50 was 5.06 ± 0.28 µM.

Q: For `CC(=N)NCCCC[C@H](N)C(=O)O.Cl` [L-N6-(1-Iminoethyl)lysine hydrochloride], which “Plate 3 (% conversion)” value [2] is on record?
A: Its value is 40.67%.

Q: For `N[C@@H](Cc1c[nH]c2ccccc12)C(=O)O` [L-Tryptophan], which “% conversion” value [3] is on record?
A: Its value is 29.06%.

Q: How did the “Plate 1 (% inhibition)” value [4] turn out when `C=CC[C@H](N)C(=O)O` [L-allylglycine] was run?
A: The value was 0.29%.

Q: And the “Plate 1 (% conversion)” value [5]?
A: The value was 35.78%.

Q: For `C[C@](N)(Cc1ccc(O)cc1)C(=O)O` [L-alpha-Methyl-p-tyrosine], which “Plate 3 (% conversion)” value is on record?
A: The value was 32.12%.

Q: How did the “Plate 1 (% conversion)” value turn out when `O=C(O)[C@@H]1CCN1` [L-azetidine-2-carboxylic acid] was run?
A: Its value is 39.44%.

Q: What about the “Plate 1 (% inhibition)” value of the same compound?
A: Its value is -10.62%.

Q: `CSc1ccccc1N1CCN(CCCCCC(=O)NC2CCCc3ccccc32)CC1` (stereo not shown) [LP44] was tested. Which “Plate 3 (% conversion)” value [2] did it give?
A: Its value is 36.33%.

Q: For `Cl.O=C(CCCCCN1CCN(c2ccccc2-c2ccccc2)CC1)NC1CCCc2ccccc21` (stereo not shown) [LP 12 hydrochloride hydrate], which “% inhibition” value [1] is on record?
A: Its value is -43.43%.

Q: What about the “% conversion” value [3] of the same compound?
A: Its value is 51.29%.

Q: With `CC(CCc1ccccc1)NCC(O)c1ccc(O)c(C(N)=O)c1` (stereo not shown) [Labetalol hydrochloride] as the compound, how does the “Plate 3 (% conversion)” value [2] read?
A: Its value is 36.38%.

Q: With `Nc1nnc(-c2cccc(Cl)c2Cl)c(N)n1` [Lamotrigine] as the compound, how does the “Plate 3 (% conversion)” value [2] read?
A: Its value is 33.75%.

Q: Which “Plate 3 (% conversion)” value [2] does the source give for `Cc1oncc1C(=O)Nc1ccc(C(F)(F)F)cc1` [Leflunomide] here?
A: The value was 37.93%.

Q: For `COC(=O)C1=C(C)NC(C)=C(C(=O)OC(C)(C)CN(C)CCC(c2ccccc2)c2ccccc2)C1c1cccc([N+](=O)[O-])c1.COC(=O)C1=C(C)NC(C)=C(C(=O)OC(C)(C)CN(C)CCC(c2ccccc2)c2ccccc2)C1c1cccc([N+](=O)[O-])c1.Cl.Cl.O` (stereo not shown) [Lercanidipine hydrochloride hemihydrate], which “Plate 1 (% inhibition)” value [4] is on record?
A: Its value is 25.41%.

Q: And the “Plate 1 (% conversion)” value [5]?
A: The value was 27.34%.

Q: With `CC[C@@H](C(N)=O)N1CCCC1=O` [Levetiracetam] as the compound, how does the “Plate 3 (% conversion)” value read?
A: The value was 34.85%.

Q: What does the source list for `CC(=O)NC[C@H]1CN(c2ccc(N3CCOCC3)c(F)c2)C(=O)O1` [Linezolid]?
A: Plate 1 (% inhibition) [4]: -10.54%; Plate 1 (% conversion) [5]: 39.41%; Plate 5 (% inhibition) (plate 5 (Pfitzer), test compounds at fixed 20 μM): 44.21%; Plate 5 (% conversion) (plate 5 (Pfitzer), test compounds at fixed 20 μM, mean conversion DMSO 32.88): 21.27%

Q: Which “Plate 3 (% conversion)” value [2] does the source give for `O=C1N(c2ccccc2)c2ccccc2C1(Cc1ccncc1)Cc1ccncc1` [Linopirdine] here?
A: Its value is 41.24%.

Q: Which “Plate 2 (% conversion)” value does the source give for `[Cl-].[Li+]` [Lithium Chloride] here?
A: Its value is 35.61%.

Q: And the “Plate 2 (% inhibition)” value (20 µM)?
A: Its value is 1.04%.

Q: `CCn1cc(C(=O)O)c(=O)c2cc(F)c(N3CCNC(C)C3)c(F)c21` (stereo not shown) [Lomefloxacin hydrochloride] was tested. Which “Plate 3 (% conversion)” value [2] did it give?
A: The value was 37.37%.

Q: `Nc1nc2c(c(=O)[nH]1)C[C@@H](CCc1ccc(C(=O)N[C@@H](CCC(=O)O)C(=O)O)cc1)CN2.O` [Lometrexol hydrate] was tested. Which “Plate 3 (% conversion)” value did it give?
A: The value was 27.08%.

Q: For `CCCCCN(CCCCC)C(=O)C(CCC(=O)O)NC(=O)c1ccc(Cl)c(Cl)c1` (stereo not shown) [Lorglumide sodium], which “Plate 3 (% conversion)” value [2] is on record?
A: Its value is 33.56%.

Q: Which results are given for `CCCCN(CCCC)CC(O)c1cc(Cl)cc2c1-c1ccc(Cl)cc1/C2=C/c1ccc(Cl)cc1` (stereo not shown) [Lumefantrine]?
A: Plate 1 (% inhibition) [4]: -1.89%; Plate 1 (% conversion) [5]: 36.51%

Q: Which “Plate 5 (% conversion)” value does the source give for `CC1(N2CCC(n3c([C@@H]4CCCNC4)nc4ccccc43)CC2)CCCCCCC1` [MCOPPB] here?
A: Its value is 39.16%.

Q: What about the “Plate 5 (% inhibition)” value of the same compound?
A: The value was -8.35%.

Q: How did the “Plate 3 (% conversion)” value [2] turn out when `CC(C)[C@H](NC(=O)OCc1ccccc1)C(=O)N[C@H](C=O)Cc1ccccc1` [MDL 28170] (Cbz-Val-Phe-aldehyde) was run?
A: The value was 33.83%.

Q: `CC[N+](CC)(CC)CCOc1ccc(/C=C/c2ccccc2)cc1` [MG 624] was tested. Which “Plate 3 (% conversion)” value [2] did it give?
A: Its value is 29.92%.

Q: `CC(C)c1ccc2c(c1)c(SC(C)(C)C)c(CC(C)(C)C(=O)O)n2Cc1ccc(Cl)cc1` [MK-886, reference compound] was tested. Which IC50 did it give?
A: Its IC50 is 8.58 ± 1.93 µM.

Q: What about the “Inhibition at 20 µM [%]” value (AspH activity, fixed compound concentration 20 μM, initial LOPAC screen, 0.5%v/v DMSO) of the same compound?
A: Its value is 99.9%.

Q: `CN1CC[C@]2(CCN3CCc4c(oc5ccccc45)[C@@H]3C2)N(C)C1=O.Cl` [MK-912] was tested. Which “Plate 3 (% conversion)” value [2] did it give?
A: The value was 38.39%.

Q: `CN(C)CCCNC(=O)c1ccc(-c2cc(O)c3ncccc3c2)cc1` [ML324, reference compound] was tested. Which IC50 did it give?
A: The IC50 was 4.65 ± 1.28 µM.

Q: Which “Plate 2 (% conversion)” value [6] does the source give for `O=[N+]([O-])/C=C/c1ccc2c(c1)OCO2` [MNS] here?
A: Its value is 25.80%.

Q: What about the “Plate 2 (% inhibition)” value (LOPAC compound at 20uM, plate 2, normalised to DMSO and 2,4-PDCA controls) of the same compound?
A: The value was 30.34%.

Q: For `CNCCCC12CCC(c3ccccc31)c1ccccc12` [Maprotiline hydrochloride], which “Plate 3 (% conversion)” value [2] is on record?
A: Its value is 42.77%.

Q: How did the “Plate 1 (% inhibition)” value [4] turn out when `C[N+](C)(C)CC#CCOC(=O)Nc1cccc(Cl)c1.[Cl-]` [McN-A-343] was run?
A: Its value is -1.57%.

Q: And the “Plate 1 (% conversion)” value [5]?
A: The value was 36.40%.

Q: With `CNC1(C)C2CCC(C2)C1(C)C` (stereo not shown) [Mecamylamine hydrochloride] as the compound, how does the “Plate 3 (% conversion)” value [2] read?
A: The value was 34.21%.

Q: How did the “Plate 3 (% conversion)” value [2] turn out when `Cc1ccc(Cl)c(Nc2ccccc2C(=O)O)c1Cl` [Meclofenamic acid sodium] was run?
A: Its value is 31.27%.

Q: For `Cc1cnc(NC(=O)C2=C(O)c3ccccc3S(=O)(=O)N2C)s1` [Meloxicam sodium], which “Plate 3 (% conversion)” value [2] is on record?
A: Its value is 33.11%.

Q: How did the “Plate 3 (% conversion)” value [2] turn out when `CC(C)NCC(O)c1cc(O)cc(O)c1.CC(C)NCC(O)c1cc(O)cc(O)c1.O=S(=O)(O)O` (stereo not shown) [Metaproterenol hemisulfate] was run?
A: The value was 40.68%.

Q: How did the “Plate 3 (% conversion)” value [2] turn out when `CN1C[C@H](CNC(=O)OCc2ccccc2)C[C@@H]2c3cccc4c3c(cn4C)C[C@H]21` [Metergoline] was run?
A: The value was 47.43%.

Q: Which “Plate 3 (% conversion)” value [2] does the source give for `CSc1ccc2c(c1)C(N1CCN(C)CC1)Cc1ccccc1S2` (stereo not shown) [Methiothepin mesylate] here?
A: The value was 47.65%.

Q: What does the source list for `CN(Cc1cnc2nc(N)nc(N)c2n1)c1ccc(C(=O)N[C@@H](CCC(=O)O)C(=O)O)cc1.O` [Methotrexate hydrate]?
A: Plate 1 (% inhibition) [4]: -3.72%; Plate 1 (% conversion) [5]: 37.12%

Q: With `COc1ccc(OC)c(C(O)C(C)N)c1` (stereo not shown) [Methoxamine hydrochloride] as the compound, how does the “Plate 3 (% conversion)” value read?
A: Its value is 32.85%.

Q: For `CCN(CC)CCNC(=O)c1cc(Cl)c(N)cc1OC.Cl` [Metoclopramide hydrochloride], which “Plate 3 (% conversion)” value [2] is on record?
A: The value was 35.20%.

Q: What does the source list for `Cc1ccccc1N1C(=O)c2cc(S(N)(=O)=O)c(Cl)cc2NC1C` (stereo not shown) [Metolazone]?
A: Plate 2 (% conversion) [6]: 34.23%; inhibition at 20 µM (LOPAC compound at 20uM, plate 2, normalised to DMSO and 2,4-PDCA controls, read-out: Plate 2 (% inhibition)): 5.16%; Plate 3 (% conversion) [2]: 30.85%

Q: How did the “Plate 3 (% conversion)” value [2] turn out when `CC[C@H](C)C(=O)O[C@H]1CCC=C2C=C[C@H](C)[C@H](CC[C@@H]3C[C@@H](O)CC(=O)O3)[C@H]21` [Mevastatin] was run?
A: Its value is 41.68%.

Q: Which “Plate 3 (% conversion)” value [2] does the source give for `CN1CCN2c3ccccc3Cc3ccccc3C2C1` (stereo not shown) [Mianserin hydrochloride] here?
A: Its value is 43.45%.

Q: Which “Plate 3 (% conversion)” value [2] does the source give for `COCC(=O)O[C@]1(CCN(C)CCCc2nc3ccccc3[nH]2)CCc2cc(F)ccc2[C@@H]1C(C)C` [Mibefradil dihydrochloride] here?
A: Its value is 62.31%.

Q: How did the “Plate 3 (% conversion)” value [2] turn out when `Cc1[nH]c(=O)c(C#N)cc1-c1ccncc1` [Milrinone] was run?
A: The value was 40.58%.
